# Key:
# Assay in all cases: qRT-PCR expression of induced resistance gene in pine tree callus
# Type in all cases: cell-based
# Settings in all cases: 200 µg/mℓ, 24 hours
# PR_3 family class 4 = test system: PR_3 family class 4
# Description: (§1) For in vitro analysis of induced resistance, the expression of PR genes and other plant defense-related genes was determined, which are evolved in various defense mechanisms including induced resistance. The primers of sixteen induced resistance-related genes of pine tree used in this invention were listed in the below and elongation factor_1 alpha were used as a reference gene. [Table 4] The primer list of defense resistance-related genes
# (§2) After the treatment with 200 µg / mℓ of candidates of the selected induced resistance material, expression of the induced resistance-related gene in pine callus was determined by qRT-PCR using the primer pairs of defense resistance-related genes in Table 4. As a candidate group of an induced resistance material in pine tree, acibenzolar-S-methyl (ASM), TDL (Tiadinil), ITL (Isotianil), PBZ (Probenzole), AZO (Azoxystrobin), VMA (Validamycin A), MeJA (Methyl jasmonate), BABA (DL-3-aminobutyric acid), 2,3-BDO (2,3-Butanediol), GABA (r-Aminobutyric acid), glucan (Glucan), ER (Ergosterol), and AZA (Azelaic acid) were used. For the in vitro analysis of the expression of induced resistance gene in pine callus, the selected induced resistance materials were applied with 500 µℓ of LM liquid medium on a surface of pine tree callus (100 mg) in 12-well microplate to give final concentration of 200 µg/mℓ. Then, the callus surface was sufficiently reacted for 24 hours with the candidate of pine tree induced resistance material by shaking at 50 rpm in a 25 °C shaking incubator under dark condition. RNAs were extracted from the callus after completion of the reaction with an induced resistance material, followed by synthesis of cDNAs. Then, by carrying out qRT-PCR, the expression of induced resistance genes was determined. [Table 5] Expression of induced resistance gene in pine tree callus by TDL, PBZ, ASM, ITL, AZO, VMA, glucan, and AZA
# (§3) Based on the results of assay using young plants and gene expression by selected induce resistance materials, it seemed that acibenzolar-S-methyl had the most excellent effect. Thus, the following tests were carried out using acibenzolar-S-methyl only. Expression of the induced resistance genes at different culture time after the chemical treatment was examined. For the in vitro assay, LM medium containing pine tree callus was treated with acibenzolar-S-methyl at concentration of 200 µg / mℓ, followed by reaction for 1 day, 7 days, or 14 days in a 25°C shaking incubator under dark condition. RNAs were extracted from the callus after the reaction followed by synthesis of cDNAs. Then, by carrying out qRT-PCR, the expression of the induced resistance genes was determined. Depending on reaction time after the treatment, i.e., after 1 day, 7 days, or 14 days, the expression of the obtained induced resistance genes was examined. As a result of the in vitro callus assay depending on reaction time after the treatment with acibenzolar-S-methyl, the expression of the induced resistance-related genes is the highest at 1 day after the treatment with acibenzolar-S-methyl and gradually diminished over time, as it is shown in Table 7. In this regard, it is contemplated that the expression of genes acquired by acibenzolar-S-methyl is not maintained in highly expressed state until the pathogen invasion and just memorized with at minimum level so that the energy consumption by plant can be efficiently managed. [Table 7] Expression of induced resistance gene in pine tree callus by acibenzolar-S-methyl depending on reaction time
# (§4) To have an in vitro assay according to different methods of treatment with acibenzolar-S-methyl, two separate treatment methods, i.e., surface treatment (spraying treatment) of pine tree callus and direct application of the induced resistance material to an LM medium containing pine tree callus, were performed. […]
# Extensin = test system: Extensin
# Description: as §1, §2, §3, §4
# Hydroxyproline = test system: Hydroxyproline
# Description: as §1, §2, §3, §4
# Heat shock 70 = test system: Heat shock 70
# Description: as §1, §2, §3, §4
# PR_2 family = test system: PR_2 family
# Description: as §1, §2, §3, §4
# PR_5 family = test system: PR_5 family
# Description: as §1, §2, §3, §4
# PR_9 family = test system: PR_9 family
# Description: as §1, §2, §3, §4
# PR_4 family = test system: PR_4 family
# Description: as §1, §2, §3, §4
# PR_1b family = test system: PR_1b family
# Description: as §1, §2, §3, §4
# PR_3 family class 1 = test system: PR_3 family class 1
# Description: as §1, §2, §3, §4
# Xyloglucan = test system: Xyloglucan
# Description: as §1, §2, §3, §4
# PR_10 family = test system: PR_10 family
# Description: as §1, §2, §3, §4
# Metallothionein = test system: Metallothionein
# Description: as §1, §2, §3, §4
# Antipeptide = test system: Antipeptide
# Description: as §1, §2, §3, §4
SMILES,"Expression of induced resistance gene, PR_3 family class 4 (PR_3 family class 4)","Expression of induced resistance gene, Extensin (Extensin)","Expression of induced resistance gene, Hydroxyproline (Hydroxyproline)","Expression of induced resistance gene, Heat shock 70 (Heat shock 70)","Expression of induced resistance gene, PR_2 family (PR_2 family)","Expression of induced resistance gene, PR_5 family (PR_5 family)","Expression of induced resistance gene, PR_9 family (PR_9 family)","Expression of induced resistance gene, PR_4 family (PR_4 family)","Expression of induced resistance gene, PR_1b family (PR_1b family)","Expression of induced resistance gene, PR_3 family class 1 (PR_3 family class 1)","Expression of induced resistance gene, Xyloglucan (Xyloglucan)","Expression of induced resistance gene, PR_10 family (PR_10 family)","Expression of induced resistance gene, Metallothionein (Metallothionein)","Expression of induced resistance gene, Antipeptide (Antipeptide)"
"CC(N)CC(=O)O (racemic) [BABA, DL-3-aminobutyric acid]",0.51,0.78,0.36,0.59,0.43,0.92,0.43,7.01,0.48,0.81,0.53,1.23,1.17,0.4
"CC(O)C(C)O (stereo not drawn) [2,3-BDO, 2,3-Butanediol]",0.33,1.07,0.83,1.29,1.26,1.13,1.22,1.41,4.36,2.78,1.13,0.86,2.53,1.31
"O=C(O)CCCCCCCC(=O)O [AZA, Azelaic acid]",1.16,1.15,0.9,1.42,1.02,1.45,1.27,0.99,1.15,1.12,0.76,1.16,1.97,1.43
"CO/C=C(/C(=O)OC)c1ccccc1Oc1cc(Oc2ccccc2C#N)ncn1 [AZO, Azoxystrobin]",1.01,2.01,1.11,0.38,1.8,1.52,1.92,2.04,1.66,1.11,1.93,1.4,0.14,0.69
"CC(C)[C@@H](C)/C=C/[C@@H](C)[C@H]1CC[C@H]2C3=CC=C4C[C@@H](O)CC[C@]4(C)[C@H]3CC[C@]12C [ER, Ergosterol]",0.81,1.06,1.42,1.91,1.17,1.05,1.35,1.13,1.14,1.06,1.05,1.21,1.37,2.11
"N#Cc1ccccc1NC(=O)c1snc(Cl)c1Cl [ITL, Isotianil]",0.81,1.39,0.72,0.43,1.48,0.95,1.88,1.39,1.77,0.95,0.97,1,0.09,0.75
"CC/C=C\CC1C(=O)CCC1CC(=O)OC (stereo not drawn) [MeJA, Methyl jasmonate]",0.79,0.93,0.53,0.69,0.47,0.95,0.47,5.86,0.5,0.54,0.44,1.34,0.21,0.43
"C=CCOC1=NS(=O)(=O)c2ccccc21 [PBZ, Probenzole]",0.74,1.62,1.21,0.73,0.46,1.99,2.52,0.46,0.26,1.04,1.41,2.08,0.25,1.11
"Cc1ccc(NC(=O)c2snnc2C)cc1Cl [TDL, Tiadinil]",1.22,1.05,0.97,0.29,0.98,1.33,1.48,1.24,1.05,0.82,1.23,1.19,0.1,0.64

# From EP3685668B1, “COMPOSITION COMPRISING ACIBENZOLAR-S-METHYL AS EFFECTIVE INGREDIENT FOR CONTROLLING BURSAPHELENCHUS XYLOPHILUS DISEASE AND METHOD FOR CONTROLLING BURSAPHELENCHUS XYLOPHILUS USING SAME” (Industry Foundation of Chonnam National University, priority 2017, dated 2019)
